Reference: patent US8653108B1, “Oximes for treatment of peripheral and central nervous system exposure to acetyl cholinesterase inhibitors” (priority 2011, dated 2014)

Key:
human MDR-1 (P-gp) = assay: MDR/MDCK bidirectional transwell permeability assay; assay type: in vitro ADME, canine; settings: dog
Procedure: (§1) See, Wang, Q. et al, Evaluation of the MDR-MDCK Cell Line As a Permeability Screen For The Blood Brain Barrier, Int. J. Pharm. 288(2) 349-359. The assay is a bidirectional assay in a transwell format system, assessing the permeability of compounds across a Madin Darby canine kidney cell line transfected with human MDR-1 gene. Efflux is assessed based on ratios from the basolateral and apical sides of the chamber.

[1] = tested on: Madin Darby canine kidney cell line transfected with human MDR-1 gene; assay: as above; assay type: in vitro ADME
Procedure: as §1

| SMILES | Papp A→B (human MDR-1 (P-gp); MDCK-MDR1, apical to basolateral) [×10⁻⁶ cm/s] | Papp B→A (human MDR-1 (P-gp); MDCK-MDR1, basolateral to apical) [×10⁻⁶ cm/s] | Brain Penetration Classification [1] | Papp A-B ([1]; apical to basolateral) [×10⁻⁶ cm/s] | Papp B-A ([1]; basolateral to apical) [×10⁻⁶ cm/s] |
| --- | --- | --- | --- | --- | --- |
| CCN(CC)CCNC(=O)/C=N/O.Cl [Example 1, N-(2-(diethylamino)ethyl)-2-(hydroxyimino)acetamide hydrochloride] | < 0.51 | < 0.67 | Low | – | – |
| CS(=O)(=O)[O-].CS(=O)(=O)[O-].ON=Cc1cc[n+](C[n+]2ccc(C=NO)cc2)cc1 [MMB4 DMS] | – | – | Low | <0.57 | <0.57 |
